In patent publication US6838479B2, “Amidine inhibitors of serine proteases” (Genentech, Inc., priority 2000, dated 2005):

What was measured:
[1] = target: tissue factor/factor VIIa (Homo sapiens, UniProt P08709); assay: Tissue Factor/Factor VIIa antagonist assay (chromogenic, Ki); format: biochemical; settings: 10 nM VIIa, 30 nM TF, Chromozym-tPA 1.33 mM; read-out: binding affinity to serine proteases: VIIa
Experimental: Tissue Factor/Factor VIIa Antagonist Assay
This procedure is used to determine the constant of inhibition (Ki) for a sample compound of the invention.
Procedure • 1. Prepare a solution of 2 μg/mL (90 nM) tissue factor and 1.5 μg/mL (30 nM) factor VIIa in assay buffer with CaCl2. • 2. Incubate for 15 minutes at room temperature. • 3. Add 50 μL sample to each well. • 4. Add 50 μL tissue factor/factor VIIa solution to each well. • 5. Incubate for 15 minutes at room temperature with gentle agitation. • 6. Add 50 μL substrate to each well. • 7. Agitate plate for 20-25 sec. • 8. Monitor absorbance at 405 nm every 10 see for a total of 5 minutes at room temperature. • 9. Calculate Vmax over 10 points.

human Factor Xa = target: T1, human Factor Xa (Homo sapiens, UniProt P00742); assay: Factor Xa assay (chromogenic, Ki); format: biochemical; settings: 3.3 nM Xa, S-2222 0.5 mM; read-out: binding affinity to serine proteases: Xa
T1 construct: This complex converts factor X to Xa
Experimental: Factor Xa, Thrombin, and Plasma Kallikrein Assays
These procedures are used to determine the constant of inhibition (Ki) for a sample compound of the invention.
Procedure • 1. Add 50 μL sample to each well. • 2. Add 50 μL appropriately diluted coagulation factor to each well. • 3. Incubate for 5 minutes at room temperature with gentle agitation. • 4. Add 50 μL appropriately diluted substrate to each well. • 5. Agitate plate for 20-25 sec. • 6. Monitor absorbance at 405 nm every 10 sec for a total of 5 minutes at room temperature. • 7. Calculate Vmax over 10 points.

T1 sequence (P00742 235-488 limits assumed): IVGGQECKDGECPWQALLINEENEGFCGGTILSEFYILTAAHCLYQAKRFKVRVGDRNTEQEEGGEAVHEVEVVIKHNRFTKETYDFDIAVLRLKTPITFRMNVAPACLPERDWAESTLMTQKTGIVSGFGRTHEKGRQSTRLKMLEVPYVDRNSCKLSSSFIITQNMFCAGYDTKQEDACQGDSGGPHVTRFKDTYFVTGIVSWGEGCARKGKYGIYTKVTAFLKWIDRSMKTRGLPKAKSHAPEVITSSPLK
T1 sequence (P00742 41-179 limits assumed): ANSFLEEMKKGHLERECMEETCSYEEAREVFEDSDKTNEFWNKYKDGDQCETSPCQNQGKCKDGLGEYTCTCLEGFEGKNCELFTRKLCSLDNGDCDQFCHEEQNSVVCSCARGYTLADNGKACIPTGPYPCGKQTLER
Sequence of tissue factor/factor VIIa (P08709 213-466 limits assumed): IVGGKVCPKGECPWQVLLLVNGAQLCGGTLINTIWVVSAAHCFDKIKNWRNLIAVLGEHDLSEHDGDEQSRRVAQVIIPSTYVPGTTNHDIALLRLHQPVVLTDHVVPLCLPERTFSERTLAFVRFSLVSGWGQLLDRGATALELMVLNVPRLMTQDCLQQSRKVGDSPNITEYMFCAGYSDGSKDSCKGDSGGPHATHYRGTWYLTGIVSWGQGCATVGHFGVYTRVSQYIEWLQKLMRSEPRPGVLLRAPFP
Sequence of tissue factor/factor VIIa (P08709 61-212 limits assumed): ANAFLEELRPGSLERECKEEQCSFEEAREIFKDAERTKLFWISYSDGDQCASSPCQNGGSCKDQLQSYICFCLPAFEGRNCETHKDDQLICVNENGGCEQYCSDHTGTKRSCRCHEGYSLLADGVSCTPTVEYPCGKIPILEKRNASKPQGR
Sequence of tissue factor/factor VIIa (P13726 33-251 partner limits assumed): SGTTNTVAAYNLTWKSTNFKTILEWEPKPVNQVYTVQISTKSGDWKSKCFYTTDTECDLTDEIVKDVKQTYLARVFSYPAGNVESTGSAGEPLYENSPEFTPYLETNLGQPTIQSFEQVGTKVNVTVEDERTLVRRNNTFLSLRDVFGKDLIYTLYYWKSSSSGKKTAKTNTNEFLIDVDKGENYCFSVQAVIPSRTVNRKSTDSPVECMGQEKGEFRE

Compound | Ki [1] | Ki (human Factor Xa)
N=C(N)c1cccc(O[C@H]2CN[C@H](C(=O)Nc3ccccc3C(F)(F)F)C2)c1 [compound 43] | 156 µM | 24.5 µM
N=C(N)c1cccc(O[C@H]2CN[C@H](C(=O)NCc3cccc(Cl)c3)C2)c1 [compound 19] | 312 µM | 9 µM
N=C(N)c1cccc(O[C@H]2CN[C@H](C(=O)N3CCCCC3)C2)c1 [compound 35] | 94 µM | 19.7 µM
N#Cc1ccccc1NC(=O)[C@@H]1C[C@@H](Oc2cccc(C(=N)N)c2)CN1 [compound 42] | 89 µM | 24.4 µM
N=C(N)c1cccc(O[C@H]2CN[C@H](C(=O)N3CCc4ccccc4C3)C2)c1 [compound 10] | 98.5 µM | 5.35 µM
Cc1ccc(CNC(=O)[C@@H]2C[C@@H](Oc3cccc(C(=N)N)c3)CN2)cc1 [compound 9] | ≥ 390 µM | 5.13 µM
N=C(N)c1cccc(O[C@H]2CN[C@H](C(=O)NC3CCc4ccccc43)C2)c1 (stereo partly drawn) [compound 25] | 156 µM | 13.3 µM
N=C(N)c1cccc(O[C@H]2CN[C@H](C(=O)NCc3ccccn3)C2)c1 [compound 47] | ≥ 390 µM | 31.4 µM
C[C@H](NC(=O)[C@@H]1C[C@@H](Oc2cccc(C(=N)N)c2)CN1)c1ccccc1 [compound 46] | 156 µM | 27 µM
N=C(N)c1cccc(O[C@H]2CN[C@H](C(=O)NCc3ccccc3)C2)c1 [compound 37] | 312 µM | 21.7 µM
N=C(N)c1cccc(O[C@H]2CN[C@H](C(=O)NCCc3ccccc3)C2)c1 [compound 53] | 133 µM | 37.1 µM
CN(C(=O)[C@@H]1C[C@@H](Oc2cccc(C(=N)N)c2)CN1)c1ccccc1 [compound 40] | 156 µM | 23 µM
N=C(N)c1cccc(O[C@H]2CN[C@H](C(=O)NC3CCCCC3)C2)c1 [compound 51] | 234 µM | 
N=C(N)c1cccc(O[C@H]2CN[C@H](C(=O)Nc3ccc(C(F)(F)F)cc3)C2)c1 [compound 24] | 312 µM | 12.9 µM
N=C(N)c1cccc(O[C@H]2CN[C@H](C(=O)Nc3ccc4ccccc4c3)C2)c1 [compound 29] | 117 µM | 14.2 µM
C=CCNC(=O)[C@@H]1C[C@@H](Oc2cccc(C(=N)N)c2)CN1 [compound 31] | ≥ 390 µM | 15.2 µM
N=C(N)c1cccc(O[C@H]2CN[C@H](C(=O)NCc3ccc4ccccc4c3)C2)c1 [compound 20] | 234 µM | 9.07 µM
N=C(N)c1cccc(O[C@H]2CN[C@H](C(=O)NCCc3ccccc3)C2)c1 [compound 41] | 187 µM | 24.3 µM
N=C(N)c1cccc(O[C@H]2CN[C@H](C(=O)NCc3ccc(N)cc3)C2)c1 [compound 30] | 312 µM | 15.2 µM

Compound | Ki [1] | Ki (human Factor Xa)
CN1CCN(C(=O)[C@@H]2C[C@@H](Oc3cccc(C(=N)N)c3)CN2)CC1 [compound 18] | 273 µM | 8.87 µM
N=C(N)c1cccc(O[C@H]2CN[C@H](C(=O)N[C@@H](Cc3ccccc3)C(=O)O)C2)c1 [compound 55] | 273 µM | 44.9 µM
N=C(N)c1cccc(O[C@H]2CN[C@H](C(=O)Nc3cccc(C(F)(F)F)c3)C2)c1 [compound 45] | 150 µM | 26.3 µM
COc1ccc(CNC(=O)[C@@H]2C[C@@H](Oc3cccc(C(=N)N)c3)CN2S(=O)(=O)c2ccccc2)cc1 [compound 50] | > 195 µM | 34.1 µM
Cc1ccccc1NC(=O)[C@@H]1C[C@@H](Oc2cccc(C(=N)N)c2)CN1 [compound 44] | 117 µM | 25.9 µM
N=C(N)c1ccc(NC(=O)[C@@H]2C[C@@H](Oc3cccc(C(=N)N)c3)CN2)cc1 [compound 2] | 64 µM | 1.15 µM
COc1ccc(CNC(=O)[C@@H]2C[C@@H](Oc3cccc(C(=N)N)c3)CN2C(C)=O)cc1 [compound 23] | > 195 µM | 12 µM
Cc1cccc(CNC(=O)[C@@H]2C[C@@H](Oc3cccc(C(=N)N)c3)CN2)c1 [compound 13] | ≥ 390 µM | 6.12 µM
C[C@@H](NC(=O)[C@@H]1C[C@@H](Oc2cccc(C(=N)N)c2)CN1)c1ccccc1 [compound 26] | 142 µM | 
COc1ccc(CNC(=O)[C@@H]2C[C@@H](Oc3cccc(C(=N)N)c3)CN2)cc1 [compound 8] | ≥ 390 µM | 3.32 µM
CCCNC(=O)[C@@H]1C[C@@H](Oc2cccc(C(=N)N)c2)CN1 [compound 49] | ≥ 390 µM | 33.8 µM
Cc1ccccc1CNC(=O)[C@@H]1C[C@@H](Oc2cccc(C(=N)N)c2)CN1 [compound 39] | ≥ 390 µM | 22.8 µM
COc1ccc(CNC(=O)[C@@H]2C[C@@H](Oc3cccc(C(=N)N)c3)CN2S(C)(=O)=O)cc1 [compound 48] | > 195 µM | 33.6 µM
N=C(N)c1cccc(O[C@H]2CN[C@H](C(=O)NCCC3CNc4ccccc43)C2)c1 (stereo partly drawn) [compound 12] | 156 µM | 6.02 µM
N=C(N)c1cccc(O[C@H]2CN[C@H](C(=O)Nc3cccc4ccccc34)C2)c1 [compound 33] | 30.5 µM | 15.5 µM
CC(C)CCNC(=O)[C@@H]1C[C@@H](Oc2cccc(C(=N)N)c2)CN1 [compound 54] | ≥ 390 µM | 38 µM
N#Cc1ccc(NC(=O)[C@@H]2C[C@@H](Oc3cccc(C(=N)N)c3)CN2)cc1 [compound 34] | 156 µM | 16.8 µM
N=C(N)c1cccc(O[C@H]2CN[C@H](C(=O)N3CCCC3)C2)c1 [compound 38] | 129 µM | 21.7 µM
N=C(N)c1cccc(O[C@H]2CN[C@H](C(=O)Nc3ccc(-c4ccccc4)cc3)C2)c1 [compound 28] | ≥ 390 µM | 14.1 µM

Other lines, results leading:

Ki [1] | Ki (human Factor Xa) | Compound
≥ 390 µM | 105 µM | N=C(N)c1cccc(O[C@H]2CN[C@H](C(=O)NCc3ccncc3)C2)c1 [compound 71]
78 µM | 70.1 µM | N=C(N)c1cccc(O[C@H]2CN[C@H](C(N)=O)C2)c1 [compound 66]
> 195 µM | 47.3 µM | COc1ccc(CNC(=O)[C@@H]2C[C@@H](Oc3cccc(C(=N)N)c3)CN2C(=O)c2ccccc2)cc1 [compound 56]
 | 62 µM | N=C(N)c1cccc(O[C@H]2CN[C@H](C(=O)N3CCCC(C(N)=O)C3)C2)c1 (stereo partly drawn) [compound 61]
≥ 390 µM | 140 µM | N=C(N)c1cccc(O[C@H]2CN[C@H](C(=O)N[C@@H](CCC(=O)O)C(=O)O)C2)c1 [compound 73]
117 µM | 90.2 µM | N=C(N)c1cccc(O[C@H]2CN[C@H](C(=O)N3CCCC(CO)C3)C2)c1 (stereo partly drawn) [compound 69]
> 390 µM |  | N=C(N)c1cccc(O[C@H]2CN[C@H](C(=O)NCC(=O)O)C2)c1 [compound 77]
≥ 390 µM | 50.7 µM | N=C(N)c1cccc(O[C@H]2CN[C@H](C(=O)NCc3cccnc3)C2)c1 [compound 58]
156 µM | 105 µM | N=C(N)c1cccc(O[C@@H]2C[C@@H](C(=O)O)N(Cc3ccccc3)C2)c1 [compound 70]
≥ 390 µM | 87.7 µM | N=C(N)c1cccc(O[C@H]2CN[C@H](C(=O)N3CCCC(C(=O)O)C3)C2)c1 (stereo partly drawn) [compound 67]
≥ 390 µM | 89.6 µM | N=C(N)c1cccc(O[C@H]2CN[C@H](C(=O)N3CCCCC3CO)C2)c1 (stereo partly drawn) [compound 68]
> 195 µM | > 175 µM | CS(=O)(=O)N1C[C@H](Oc2cccc(C(=N)N)c2)C[C@H]1C(=O)O [compound 81]
> 195 µM |  | C=CCOC(=O)[C@@H]1C[C@@H](Oc2cccc(C(=N)N)c2)CN1S(C)(=O)=O [compound 78]
> 390 µM | 64.6 µM | N=C(N)c1cccc(O[C@H]2CN[C@H](C(=O)N3CCCCC3CCO)C2)c1 (stereo partly drawn) [compound 62]
273 µM | 70.1 µM | COc1ccc(NC(=O)[C@@H]2C[C@@H](Oc3cccc(C(=N)N)c3)CN2)cc1 [compound 64]
> 195 µM | 140 µM | C=CCOC(=O)[C@@H]1C[C@@H](Oc2cccc(C(=N)N)c2)CN1S(=O)(=O)c1ccccc1 [compound 74]
≥ 390 µM | 70 µM | N=C(N)c1cccc(O[C@H]2CN[C@H](C(=O)N3CCNCC3)C2)c1 [compound 63]
≥ 390 µM | 140 µM | C[C@H](NC(=O)[C@@H]1C[C@@H](Oc2cccc(C(=N)N)c2)CN1)C(=O)O [compound 75]
≥ 390 µM | 59.8 µM | CC(C)NC(=O)[C@@H]1C[C@@H](Oc2cccc(C(=N)N)c2)CN1 [compound 59]
≥ 390 µM | 132 µM | CC(C)[C@@H](NC(=O)[C@@H]1C[C@@H](Oc2cccc(C(=N)N)c2)CN1)C(=O)O [compound 72]
> 195 µM | > 175 µM | N=C(N)c1cccc(O[C@@H]2C[C@@H](C(=O)O)N(S(=O)(=O)c3ccccc3)C2)c1 [compound 82]
30.7 µM | 70.1 µM | N=C(N)c1cccc(O[C@H]2CN[C@H](C(=O)Nc3ccc(F)cc3)C2)c1 [compound 65]
312 µM | 49.3 µM | N=C(N)c1cccc(O[C@H]2CN[C@H](C(=O)N3CCC(O)CC3)C2)c1 [compound 57]
